Laboratory results: patent US20250057832A1, “USE OF A CLASS OF 1,4-DIHYDRO-NAPHTHYRIDINE DERIVATIVES IN TREATMENT OF TUMORS” (NEURODAWN PHARMACEUTICAL CO., LTD., priority 2021, published 2025)

Key:
[1] = tested on: U87MG-Luc glioblastoma cell in situ transplantation tumor; assay: S2 in U87MG-Luc glioblastoma in situ transplantation tumor model in nude mice (Example 4); format: in vivo, BALB/c nude mice; conditions: for Overall survival period: vehicle 31; for Median survival period: vehicle 31.5
Protocol: Before the transplantation, the U87MG-Luc cells were digested with 0.05%-trypsin-EDTA, resuspended with pre-cooled PBS to 4×10^7 cells/mL, and transferred to ice for later use. The nude mice were anesthetized with isoflurane gas, and then fixed on a stereotaxic machine in a prone position. The scalp of the nude mouse was disinfected with iodophor, and incised sagittally with a scalpel. The incision was cleaned with iodophor. The skull was exposed, and drilled with a skull drill extending 1.0 mm in front of the bregma and deviating the right side 2.0 mm. 5 μL of cell suspension (2×10^5 cells) was manually injected with a 10 μL flat-head microsyringe, with inserting the needle to a depth of 3.5 mm, withdrawing the needle 0.5 mm, and injecting for about 10 minutes. After stopping the injection for 5 minutes, the needle was slowly removed, and the incision was sterilized and sutured. Finally 50,000 units of penicillin was injected intramuscularly to prevent infection.
On days 4, 12, 18, and 25 after the transplantation, 200 μL of 15 mg/mL D-luciferin potassium salt solution, which was filtered and sterilized through a 0.22 μm filter, was injected intraperitoneally. After 10 minutes, IVI chemiluminescence detection (bright field+bioluminescence imaging) was performed using the mouse in vivo imaging system (PE company IVIS Lumina XR). Luorescence intensity was analyzed using Living Image software to obtain fluorescence intensity [p/s], which reflected the size of tumor tissue in the brain of experimental animals.
The survival conditions of experimental animals were monitored, and the animals' death dates were recorded timely.
Quantitative data are expressed as mean±standard error. Each pharmacodynamic index was plotted using GraphPad Prism (8.0.1) software, differences between groups were tested by one-way ANOVA or two-way repeat ANOVA, followed by Fisher's LSD test, and survival analysis was performed by Kaplan-Meier. P<0.05 was defined as a significant difference.

[2] = tested on: CT26.WT; assay: Vacuolation phenotype by S2 (Example 2); format: cell-based, mouse; conditions: 30 μM, 6 hours
Protocol: (§1) U87MG, T98G, U251, SK-N-SH, A-172 and HepG2 cells were adherently cultured in MEM+10% FBS+1% P/S medium and passaged at 1:3; CT26.WT cells were adherently cultured in RPMI-1640+10% FBS+1% P/S medium and passaged at 1:3; CHO-K1 was cultured adherently in Ham's F-12K+10% FBS+[…] medium and passaged at 1:3.
(§2) The cells used above were resuscitated and passaged twice stably. When the cell density reached above 85%, the cells were digested with 0.05% trypsin-EDTA for 3 minutes, resuspended with the culture medium, and plated into a 6-well plate at a certain density, with each well system being 2 mL. The cells were cultured for 24 hours, added with 2 μL of the above-prepared S2 solution (final DMSO concentration 0.1%) to each well according to the grouping, such that the S2 concentration in the cell culture system reached 30 μM.
(§3) After 6 hours of drug treatment, the plate was observed under a microscope with a 20× objective lens, and five fields of view were randomly selected for each well to take photos and record. […]

[3] = tested on: U251; assay: Vacuolation phenotype by S2 (Example 2); format: cell-based, human; conditions: U251, 30 μM, 6 hours
Protocol: as §1, §2
(§4) After 6 hours of drug treatment, the plate was observed under a microscope with a 20× objective lens, and five fields of view were randomly selected for each well to take photos and record. If bright vacuoles with clear border appeared in the cell in the observed field of view, and at least one of the following conditions was met: 1) a cell contained at least one vacuole with a diameter greater than […]; 2) a cell contained 3 or more vacuoles with a diameter within the range of […], the cell was considered as a methuosis-positive cell (Journal of Medicinal Chemistry 2018 61 (12), 5424-5434).
(§5) CELLpositive: the number of methuosis-positive cells; CELLnormal: the number of cells with normal morphology

[4] = tested on: U87MG; assay: Vacuolation phenotype by S2 (Example 2); format: cell-based, human; conditions: 30 μM, 6 hours
Protocol: as §1, §2, §4, §5

[5] = tested on: SK-N-SH; assay: Vacuolation phenotype by S2 (Example 2); format: cell-based, human; conditions: 30 μM, 6 hours
Protocol: as §1, §2, §4, §5

[6] = tested on: T98G; assay: Vacuolation phenotype by S2 (Example 2); format: cell-based, human; conditions: 30 μM, 6 hours
Protocol: as §1, §2, §4, §5

[7] = tested on: A172; assay: Vacuolation phenotype by S2 (Example 2); format: cell-based, human; conditions: A172, 30 μM, 6 hours
Protocol: as §1, §2, §4, §5

[8] = tested on: HepG2; assay: Vacuolation phenotype by S2 (Example 2); format: cell-based, human; conditions: HepG2, 30 μM, 6 hours
Protocol: as §1, §2, §4, §5

[9] = tested on: CHO-K1; assay: Cell viability assay (Example 2); format: cell-based, hamster; conditions: non-tumor cell line CHO-K1, 48 hours
Protocol: as §1
The above various cells were resuscitated and stably passaged twice. When the cell density reached above 85%, the cells were digested with 0.05% trypsin-EDTA for three minutes, resuspended, plated in a 96-well plate at the corresponding density, and cultured for 24 hours. The cells were treated with drugs at final concentrations of the culture system of 0.41 μM, 1.23 μM, 3.7 μM, 11.1 μM, 33.3 μM, and 100 μM. After 48 hours of drug treatment, cell viability was determined using CellCounting-Lite™ 2.0 kit. The plate was added with reagents at 100 µL/well according to the CellCounting-Lite™ 2.0 kit instructions, and shaken for 10 minutes. The luminescence value (LUM) was read on a multi-function plate reader, and the relative viability of the cells was calculated.
Relative viability of tumor cells V (%)=(LUM-LUMbackground)/(LUMnormal control−LUMbackground)×100%. LUMbackground was the background reading of the complete culture medium well added with the detection reagent. The half inhibitory concentration (IC50) was calculated using GraphPad Prism 8.0.1 statistical software.

[10] = tested on: CHO-K1; assay: Vacuolation phenotype by S2 (Example 2); format: cell-based, hamster; conditions: non-tumor cell line CHO-K1, 30 μM, 6 hours
Protocol: as §1, §2, §3

Question: How did the “Overall survival period” value ([1]; S2 0.25 mg/kg) turn out when `CCOC(=O)C1=C(C)Nc2nc3c(c(N)c2C1c1ccccc1Cl)CC(C)(C)CC3` (stereo not shown) [Compound S2] was run?
Answer: 32 days

Question: What about the “Median survival period” value ([1]; S2 0.25 mg/kg) of the same molecule?
Answer: 32.5 days

Question: And the “Survival rate vs vehicle (Log-rank, FIG. 8)” value ([1]; S2 0.5 mg/kg IV)?
Answer: significantly increased the survival rate

Question: And the “Tumor growth after two weeks of administration vs vehicle (FIG. 7)” value ([1]; S2 0.5 mg/kg IV)?
Answer: significant inhibitory effect on tumor growth

Question: And the “Growth of U87MG in situ tumors in the brain vs vehicle (growth curve, FIG. 6)” value ([1]; S2 0.5 mg/kg IV once a day for 15 days)?
Answer: significantly inhibit the growth

Question: And the “Overall survival period” value ([1]; S2 0.5 mg/kg)?
Answer: 33 days

Question: And the “Median survival period” value ([1]; S2 0.5 mg/kg)?
Answer: 33.5 days

Question: And the “Survival rate vs vehicle (Log-rank, FIG. 8)” value ([1]; S2 1 mg/kg IV)?
Answer: significantly increased the survival rate

Question: And the “Tumor growth after two weeks of administration vs vehicle (FIG. 7)” value ([1]; S2 1 mg/kg IV)?
Answer: significant inhibitory effect on tumor growth

Question: And the “Growth of U87MG in situ tumors in the brain vs vehicle (growth curve, FIG. 6)” value ([1]; S2 1 mg/kg IV once a day for 15 days)?
Answer: significantly inhibit the growth

Question: And the “Rank of inhibitory effect on tumor among S2 dose groups” value ([1]; S2 1 mg/kg IV, after two weeks)?
Answer: strongest inhibitory effect on tumor

Question: What about the “Overall survival period” value ([1]; S2 1 mg/kg) of the same molecule?
Answer: 36 days

Question: And the “Median survival period” value ([1]; S2 1 mg/kg)?
Answer: 35 days

Question: What about the “Growth of U87MG glioma in the brain of nude mice (FIG. 7 legend)” value ([1]; administration of S2 for 2 weeks, dose not given in legend) of the same molecule?
Answer: inhibited the growth of U87MG glioma

Question: And the “Survival period of nude mice with orthotopically transplanted brain glioma (FIG. 8 legend)” value ([1]; dose not given in legend)?
Answer: prolonged the survival period

Question: What about the Induction of vacuolation [2] of the same molecule?
Answer: can also induce vacuolation

Question: And the Induction of vacuolation [3]?
Answer: can induce vacuolation

Question: And the Induction of vacuolation [4]?
Answer: can induce vacuolation

Question: And the Induction of vacuolation [5]?
Answer: can induce vacuolation

Question: What about the Induction of vacuolation [6] of the same molecule?
Answer: can induce vacuolation

Question: What about the Induction of vacuolation [7] of the same molecule?
Answer: can induce vacuolation

Question: And the Induction of vacuolation [8]?
Answer: can also induce vacuolation

Question: What about the IC50 ([9]; CHO-K1, 48 h) of the same molecule?
Answer: > 100 µM

Question: What about the IC50 [9] of the same molecule?
Answer: ~100 µM

Question: And the Induction of vacuolation [10]?
Answer: could not induce vacuolation
